From patent US20260078120A1, “SUBSTITUTED PYRIDOPYRIMIDINONES” (MIRATI THERAPEUTICS, INC., priority 2022, published 2026)

How the values were obtained:
[1] = system: T47D (PI3Kα H1047R mutant) cells; assay: CellTiter-Glo 2.0 luminescent cell viability assay, 72 hours, T47D cells; type: cell-based; settings: Homo sapiens, T47D, 72 h, T47D (PI3Kα H1047R mutant) cells, CellTiter-Glo, approximately 72 hours; read-out: T47D (H1047R mutant) Viability IC50
In short: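 Cells seeded at 1000 per well overnight were dosed with a 10-concentration, 1:4 series starting at 10 µM and incubated ~72 h at 37° C. Viability was read by CellTiter-Glo 2.0 luminescence after 30 min at room temperature. IC50 came from four-parameter fits of percent vehicle control.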

[2] = system: SKBR3 (PI3Kα wild type) cells; assay: CellTiter-Glo 2.0 luminescent cell viability assay, 72 hours, SKBR3 cells; type: cell-based; settings: Homo sapiens, SK-BR-3, 72 h, SKBR3 (PI3Kα wild type) cells, CellTiter-Glo, approximately 72 hours; read-out: SKBR3 (WT) Viability IC50
In short: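 Viability measured via CTG luminescence following roughly 72 hours of compound exposure at 37° C. Dosing used a 10 um starting concentration diluted 1:4 over 10 points; percent-of-vehicle data fitted with a variable-slope four-parameter model for IC50.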

IC50 [1] [nM] | IC50 [2] [nM] | SMILES
150 | > 10000 | Cc1cc([C@@H](C)Nc2ccc(C)nc2C(=O)O)c2nc(N3CCC(F)(F)CC3)c(C)c(=O)n2c1 [Example 11-46, (R)-3-((1-(2-(4,4-difluoropiperidin-1-yl)-3,7-dimethyl-4-oxo-4H-pyrido[1,2-a]pyrimidin-9-yl)ethyl)amino)-6-methylpicolinic acid]
485 | > 10000 | Cc1cc([C@@H](C)Nc2ccccc2C(=O)O)c2nc(N[C@H](C)C3CC3)c(C#N)c(=O)n2c1 [Example 11-165, 2-(((R)-1-(3-cyano-2-(((R)-1-cyclopropylethyl)amino)-7-methyl-4-oxo-4H-pyrido[1,2-a]pyrimidin-9-yl)ethyl)amino)benzoic acid]
> 10000 | > 10000 | COc1cc(=O)n2cc(C)cc(C(C)Nc3ccccc3C(=O)O)c2n1 (stereo not shown) [Example 11-372, 2-((1-(2-methoxy-7-methyl-4-oxo-4H-pyrido[1,2-a]pyrimidin-9-yl)ethyl)amino)benzoic acid]
1290 | > 10000 | Cc1cc([C@@H](C)Nc2ccccc2C(=O)O)c2nc(NCC3CCOC3)c(C)c(=O)n2c1 (stereo partly drawn) [Example 11-197, 2-(((1R)-1-(3,7-dimethyl-4-oxo-2-(((tetrahydrofuran-3-yl)methyl)amino)-4H-pyrido[1,2-a]pyrimidin-9-yl)ethyl)amino)benzoic acid]
> 10000 | > 10000 | Cc1cc(C(C)Nc2ccccc2C(=O)O)c2nc(Nc3cccc(C#N)c3)cc(=O)n2c1 (stereo not shown) [Example 11-339, 2-((1-(2-((3-cyanophenyl)amino)-7-methyl-4-oxo-4H-pyrido[1,2-a]pyrimidin-9-yl)ethyl)amino)benzoic acid]
213 | > 10000 | Cc1cc([C@@H](C)Nc2ccccc2C(=O)O)c2nc(N3CCC(F)(F)C[C@@H]3C)c(C)c(=O)n2c1 [Example 11-92, 2-(((R)-1-(2-((S)-4,4-difluoro-2-methylpiperidin-1-yl)-3,7-dimethyl-4-oxo-4H-pyrido[1,2-a]pyrimidin-9-yl)ethyl)amino)benzoic acid]
646 | > 10000 | Cc1cc([C@@H](C)Nc2ccccc2C(=O)O)c2nc(NC[C@H]3CCOC3)c(C)c(=O)n2c1 [Example 11-196, 2-(((R)-1-(3,7-dimethyl-4-oxo-2-((((R)-tetrahydrofuran-3-yl)methyl)amino)-4H-pyrido[1,2-a]pyrimidin-9-yl)ethyl)amino)benzoic acid]
255 | > 10000 | Cc1cc([C@@H](C)Nc2ccccc2C(=O)O)c2nc(N3CCC4(CC3)CC4)c(C)c(=O)n2c1 [Example 11-221, (R)-2-((1-(3,7-dimethyl-4-oxo-2-(6-azaspiro[2.5]octan-6-yl)-4H-pyrido[1,2-a]pyrimidin-9-yl)ethyl)amino)benzoic acid]
143 | 9930 | C[C@H](Nc1ccccc1C(=O)O)c1cc(C2CC2)cn2c(=O)c(C#N)c(N3Cc4ccccc4C3)nc12 [Example 11-327, (S)-2-((1-(3-cyano-7-cyclopropyl-2-(isoindolin-2-yl)-4-oxo-4H-pyrido[1,2-a]pyrimidin-9-yl)ethyl)amino)benzoic acid]
15 | > 10000 | Cc1cc([C@@H](C)Nc2ccccc2C(=O)O)c2nc(N3CCN(C(=O)CC4CC4)CC3)c(C)c(=O)n2c1 [Example 10-6, (R)-2-((1-(2-(4-(2-cyclopropylacetyl)piperazin-1-yl)-3,7-dimethyl-4-oxo-4H-pyrido[1,2-a]pyrimidin-9-yl)ethyl)amino)benzoic acid]
358 | > 10000 | Cc1cc([C@@H](C)Nc2ccc(Cl)cc2C(=O)O)c2nc(N3CCC(F)(F)CC3)c(C)c(=O)n2c1 [Example 11-91, (R)-5-chloro-2-((1-(2-(4,4-difluoropiperidin-1-yl)-3,7-dimethyl-4-oxo-4H-pyrido[1,2-a]pyrimidin-9-yl)ethyl)amino)benzoic acid]
146 | > 10000 | Cc1cc([C@@H](C)Nc2ccccc2C(=O)O)c2nc(N3CCN(c4cccc(C#N)c4)C[C@@H]3C)c(C)c(=O)n2c1 [Example 11-86, 2-(((R)-1-(2-((S)-4-(3-cyanophenyl)-2-methylpiperazin-1-yl)-3,7-dimethyl-4-oxo-4H-pyrido[1,2-a]pyrimidin-9-yl)ethyl)amino)benzoic acid]
4190 | > 10000 | Cc1cc([C@@H](C)Nc2ccnnc2C(=O)O)c2nc(N3Cc4ccccc4C3)c(C)c(=O)n2c1 [Example 11-277, (R)-4-((1-(2-(isoindolin-2-yl)-3,7-dimethyl-4-oxo-4H-pyrido[1,2-a]pyrimidin-9-yl)ethyl)amino)pyridazine-3-carboxylic acid]
634 | > 10000 | Cc1cc([C@@H](C)Nc2ccc(C#N)cc2C(=O)O)c2nc(N3Cc4ccccc4C3)c(C)c(=O)n2c1 [Example 11-310, (R)-5-cyano-2-((1-(2-(isoindolin-2-yl)-3,7-dimethyl-4-oxo-4H-pyrido[1,2-a]pyrimidin-9-yl)ethyl)amino)benzoic acid]
350 | > 10000 | CO[C@@H]1CN(c2nc3c([C@@H](C)Nc4ccccc4C(=O)O)cc(C)cn3c(=O)c2C)CC1(F)F [Example 11-117, 2-(((R)-1-(2-((R)-3,3-difluoro-4-methoxypyrrolidin-1-yl)-3,7-dimethyl-4-oxo-4H-pyrido[1,2-a]pyrimidin-9-yl)ethyl)amino)benzoic acid]
177 | > 10000 | Cc1cc([C@@H](C)Nc2ccccc2C(=O)O)c2nc(N3CCC4(CC3)CC4(F)F)c(C#N)c(=O)n2c1 [Example 11-218, (R)-2-((1-(3-cyano-2-(1,1-difluoro-6-azaspiro[2.5]octan-6-yl)-7-methyl-4-oxo-4H-pyrido[1,2-a]pyrimidin-9-yl)ethyl)amino)benzoic acid]
> 10000 | > 10000 | C[C@@H](Nc1ccccc1C(=O)O)c1cc(C#N)cn2c(=O)cc(N3CCC(F)(F)CC3)nc12 [Example 11-418, (R)-2-((1-(7-cyano-2-(4,4-difluoropiperidin-1-yl)-4-oxo-4H-pyrido[1,2-a]pyrimidin-9-yl)ethyl)amino)benzoic acid]
287 | > 10000 | Cc1cc([C@@H](C)Nc2ccccc2C(=O)O)c2nc(N3C[C@@H]4[C@H](C3)[C@H]4C(F)(F)F)c(C)c(=O)n2c1 [Example 11-445, 2-(((R)-1-(3,7-dimethyl-4-oxo-2-((1R,5S,6R)-6-(trifluoromethyl)-3-azabicyclo[3.1.0]hexan-3-yl)-4H-pyrido[1,2-a]pyrimidin-9-yl)ethyl)amino)benzoic acid]
24.2 | > 10000 | Cc1cc([C@@H](C)Nc2ccccc2C(=O)O)c2nc(N3CCCC4(CCC4O)C3)c(C)c(=O)n2c1 (stereo partly drawn) [Example 10-8, 2-(((1R)-1-(2-(1-hydroxy-6-azaspiro[3.5]nonan-6-yl)-3,7-dimethyl-4-oxo-4H-pyrido[1,2-a]pyrimidin-9-yl)ethyl)amino)benzoic acid]
> 10000 | > 10000 | Cc1cc(C#N)c2nc(N3CCCCC3)cc(=O)n2c1 [Example 11-409, 7-methyl-4-oxo-2-(piperidin-1-yl)-4H-pyrido[1,2-a]pyrimidine-9-carbonitrile]
600 | > 10000 | Cc1cc(C(C)Nc2ccc(F)cc2C(=O)O)c2nc(N3Cc4ccccc4C3)c(C)c(=O)n2c1 (stereo not shown) [Example 11-367, 5-fluoro-2-((1-(2-(isoindolin-2-yl)-3,7-dimethyl-4-oxo-4H-pyrido[1,2-a]pyrimidin-9-yl)ethyl)amino)benzoic acid]
156 | > 10000 | Cc1cc([C@@H](C)Nc2ccccc2C(=O)O)c2nc(N3CC4C(C3)C4(F)F)c(C)c(=O)n2c1 (stereo partly drawn) [Example 11-222, 2-(((1R)-1-(2-(6,6-difluoro-3-azabicyclo[3.1.0]hexan-3-yl)-3,7-dimethyl-4-oxo-4H-pyrido[1,2-a]pyrimidin-9-yl)ethyl)amino)benzoic acid]
122 | > 10000 | Cc1cc([C@@H](C)Nc2ccccc2C(=O)O)c2nc(N3CCC(n4cccn4)CC3)c(C)c(=O)n2c1 [Example 11-432, (R)-2-((1-(2-(4-(1H-pyrazol-1-yl)piperidin-1-yl)-3,7-dimethyl-4-oxo-4H-pyrido[1,2-a]pyrimidin-9-yl)ethyl)amino)benzoic acid]
138 | 8310 | Cc1cc([C@@H](C)Nc2ccccc2C(=O)O)c2nc(N3CCN(c4ccc(C(F)(F)F)cn4)CC3)c(C)c(=O)n2c1 [Example 11-434, (R)-2-((1-(3,7-dimethyl-4-oxo-2-(4-(5-(trifluoromethyl)pyridin-2-yl)piperazin-1-yl)-4H-pyrido[1,2-a]pyrimidin-9-yl)ethyl)amino)benzoic acid]
118 | > 10000 | CNC(=O)c1ccc(N2CCN(c3nc4c([C@@H](C)Nc5ccccc5C(=O)O)cc(C)cn4c(=O)c3C)CC2)cc1 [Example 11-249, (R)-2-((1-(3,7-dimethyl-2-(4-(4-(methylcarbamoyl)phenyl)piperazin-1-yl)-4-oxo-4H-pyrido[1,2-a]pyrimidin-9-yl)ethyl)amino)benzoic acid]
145 | > 10000 | Cc1cc([C@@H](C)Nc2ccccc2C(=O)O)c2nc(N3CC(F)(F)C4(CC4)C3)c(C)c(=O)n2c1 [Example 11-61, (R)-2-((1-(2-(7,7-difluoro-5-azaspiro[2.4]heptan-5-yl)-3,7-dimethyl-4-oxo-4H-pyrido[1,2-a]pyrimidin-9-yl)ethyl)amino)benzoic acid]
